Results from US12545669B2, “Cycloalkyl and heterocycloalkyl benzisoxazole sulfonamide derivatives” (Pfizer Inc., priority 2019, dated 2026).
Read-outs that look alike come from different tables or passages of the source.

Biological target: KAT6A (Homo sapiens (Human), UniProt Q92794)
Experiment: KAT assay protocol (SAMDI mass spectrometry), KAT6A
Assay type: biochemical
Conditions: for inhibition at 1 µM: 1 μM compound; for IC50: KAT6A IC50 at 1 μM AcCoA, 1 μM AcCoA; for Ki: 10 μM AcCoA, Morrison equation
Description: Biological Assay Section 1 KAT Assay Protocol:
A. Compound Preparation • 1. Prepare 10 mM stock solutions in 100% DMSO from solid material • 2. Serial dilute 10 mM, 1 mM or 0.1 mM compound stocks 3-fold in 100% DMSO for 11-point dose response
B. Reagent Preparation • 1. Prepare 1× assay buffer containing 10 mM Tris HCL pH 8.0, 2.5 mM NaCl, 0.5 mM EDTA, 0.005% BSG and 0.02% Tween-20 • 2. Dilute Histone peptide (CPC Scientific) and AcCoA (Sigma) together in assay buffer to 2×. • 3. Dilute KAT enzyme in assay buffer to 2×.
C. Enzyme Reaction • 1. Final reaction conditions for each KAT assay in a 20 ul assay reaction volume: • i. […] Add 0.5 ul of diluted compound to the assay plate (384-well V-bottom polypropylene plates) or 0.5 ul of DMSO for control wells. • 3. Add 10 ul of 2× Histone peptide/2× AcCoA mix to the assay plate. • 4. Add 10 ul of 2× enzyme to the assay plate. • 5. Stop the reaction after the indicated time with the addition of 2 ul of 5% formic acid • 6. Each reaction was analyzed using self-assembled monolayer desorption/ionization time-of-flight mass spectrometry (Mrksich, Milan (2008) Mass Spectrometry of Self-Assembled Monolayers: A New Tool for Molecular Surface Science ACS Nano 2008 2 (1), 7-18; SAMDI Tech, Inc. (Chicago, IL)). • 7. Area under the curve (AUC) for both substrate and product peaks was determined for KAT6A at M.W. 2723 [Substrate+H]^+ and 2765 [Product+H]^+ with a +/−1 Da tolerance, respectively. • 8. Percent conversion to product was calculated by: AUCProduct/(AUCSubstrate+AUCProduct).
D. Data Analysis • 1. IC50 values were determined by fitting the % conversion at each inhibitor concentration to the 4-parameter IC50 equation using Pfizer proprietary curve fitting software. • 2. Ki values were determined by fitting the % conversion at each inhibitor concentration to the Morrison equation for tightbinding competitive inhibitors using Pfizer proprietary curve fitting software. Materials
KAT enzymes were expressed using a baculovirus expression system and purified at Pfizer, La Jolla. Histone H3 (1-21) peptide ([…], SEQ ID NO:3) was purchased from CPC Scientific (Sunnyvale, CA). Acetyl coenzyme A was purchased from Sigma-Aldrich (St. Louis, MO). All other biochemical reagents were purchased from Sigma-Aldrich or ThermoFisher Scientific (Waltham, MA).
[…] 10 ul of 2× Histone peptide/AcCoA mix was added to a 384-well V-bottom polypropylene assay plate containing 0.5 ul of serially diluted test compound in 100% dimethyl sulfoxide (DMSO). To start the reaction, 10 ul of 2× enzyme solution was added to the assay plate. KAT assays were terminated after 30-60 minutes with the addition of 2 ul of 5% formic acid. KAT6A used histone H3 (1-21) peptide. The final enzyme concentration for KAT6A was 15 nM. Each reaction was analyzed using self-assembled monolayer desorption/ionization time-of-flight mass spectrometry (Mrksich, Milan (2008) Mass Spectrometry of Self-Assembled Monolayers: A New Tool for Molecular Surface Science ACS Nano 2008 2 (1), 7-18; SAMDI Tech, Inc. (Chicago, IL)).
Area under the curve (AUC) for both substrate and product peaks was determined for KAT6A at M.W. 2723 [Substrate+H]^+ and 2765 [Product+H]^+ with a +/−1 Da tolerance, respectively. Percent conversion to product was calculated by: AUCProduct/(AUCSubstrate+AUCProduct). IC50 values were determined by fitting the % conversion at each inhibitor concentration to the 4-parameter IC50 equation using Pfizer proprietary curve fitting software. Ki values were determined by fitting the % conversion at each inhibitor concentration to the Morrison equation for tightbinding competitive inhibitors using Pfizer proprietary curve fitting software.

[1] = read-out: KAT6A Ki at 10 μM AcCoA

Chain of KAT6A (Q92794 whole entry): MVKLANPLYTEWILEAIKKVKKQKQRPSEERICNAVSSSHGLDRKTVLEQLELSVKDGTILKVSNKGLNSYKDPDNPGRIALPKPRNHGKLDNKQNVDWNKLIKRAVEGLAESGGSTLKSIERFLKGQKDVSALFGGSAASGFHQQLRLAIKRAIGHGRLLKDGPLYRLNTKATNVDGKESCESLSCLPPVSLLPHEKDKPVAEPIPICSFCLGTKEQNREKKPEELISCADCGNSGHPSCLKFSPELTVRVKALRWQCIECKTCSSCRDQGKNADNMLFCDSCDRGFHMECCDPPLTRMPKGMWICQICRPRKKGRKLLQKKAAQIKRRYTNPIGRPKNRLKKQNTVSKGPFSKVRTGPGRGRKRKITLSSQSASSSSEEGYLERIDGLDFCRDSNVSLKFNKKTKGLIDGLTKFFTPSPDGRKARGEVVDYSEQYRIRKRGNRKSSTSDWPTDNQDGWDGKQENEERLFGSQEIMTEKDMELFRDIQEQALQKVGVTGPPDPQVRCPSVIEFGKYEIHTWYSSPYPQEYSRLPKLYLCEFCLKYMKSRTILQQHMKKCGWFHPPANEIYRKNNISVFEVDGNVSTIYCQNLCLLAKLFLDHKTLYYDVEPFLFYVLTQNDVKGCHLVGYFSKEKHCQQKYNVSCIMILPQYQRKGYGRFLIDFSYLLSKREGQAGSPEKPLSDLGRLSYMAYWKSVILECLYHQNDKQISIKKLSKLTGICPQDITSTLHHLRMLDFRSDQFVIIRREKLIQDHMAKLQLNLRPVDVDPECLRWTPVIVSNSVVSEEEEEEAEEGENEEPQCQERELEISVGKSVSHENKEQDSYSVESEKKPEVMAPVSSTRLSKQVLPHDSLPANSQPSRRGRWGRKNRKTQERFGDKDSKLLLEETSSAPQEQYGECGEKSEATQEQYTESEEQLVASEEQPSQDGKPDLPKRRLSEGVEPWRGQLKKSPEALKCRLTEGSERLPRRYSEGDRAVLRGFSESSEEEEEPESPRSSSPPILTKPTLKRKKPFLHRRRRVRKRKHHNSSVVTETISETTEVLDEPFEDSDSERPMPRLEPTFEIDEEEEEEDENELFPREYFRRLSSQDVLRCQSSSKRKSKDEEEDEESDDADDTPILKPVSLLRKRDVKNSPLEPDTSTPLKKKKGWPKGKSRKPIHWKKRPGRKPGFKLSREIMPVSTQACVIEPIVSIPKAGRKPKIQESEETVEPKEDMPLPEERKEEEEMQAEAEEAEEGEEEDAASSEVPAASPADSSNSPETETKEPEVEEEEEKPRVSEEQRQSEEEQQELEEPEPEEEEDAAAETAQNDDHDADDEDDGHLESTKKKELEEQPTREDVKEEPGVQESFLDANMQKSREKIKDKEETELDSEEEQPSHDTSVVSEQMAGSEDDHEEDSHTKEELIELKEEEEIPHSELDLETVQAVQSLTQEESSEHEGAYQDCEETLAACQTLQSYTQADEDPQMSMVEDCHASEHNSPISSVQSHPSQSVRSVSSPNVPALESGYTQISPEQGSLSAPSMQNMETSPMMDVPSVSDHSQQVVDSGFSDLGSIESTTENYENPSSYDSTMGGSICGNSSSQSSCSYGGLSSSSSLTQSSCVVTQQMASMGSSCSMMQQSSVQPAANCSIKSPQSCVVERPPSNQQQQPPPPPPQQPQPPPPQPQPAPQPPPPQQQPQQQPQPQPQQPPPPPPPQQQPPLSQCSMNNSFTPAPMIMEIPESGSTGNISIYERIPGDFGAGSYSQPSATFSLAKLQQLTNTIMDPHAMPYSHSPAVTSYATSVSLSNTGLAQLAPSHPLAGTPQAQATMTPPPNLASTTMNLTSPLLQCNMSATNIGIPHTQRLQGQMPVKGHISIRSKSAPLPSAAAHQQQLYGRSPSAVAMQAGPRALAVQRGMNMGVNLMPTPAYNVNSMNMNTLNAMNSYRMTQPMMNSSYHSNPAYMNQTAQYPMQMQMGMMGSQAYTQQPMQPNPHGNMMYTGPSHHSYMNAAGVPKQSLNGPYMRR

## COc1cc(Cn2cccn2)cc2onc(NS(=O)(=O)CC3(C(F)F)CCC3)c12 [Example 76]
  inhibition at 1 µM: 90%

## COc1cc(Cn2cccn2)cc2onc(NS(=O)(=O)CCN3CCCC3)c12 [Example 129]
  inhibition at 1 µM: 16%

## COc1cc(Cn2cccn2)cc2onc(NS(=O)(=O)CC3CCCOC3)c12 (centres unmarked) [Example 3]
  IC50: 0.301 µM

## COc1cc(Cn2cccn2)cc2onc(NS(=O)(=O)CC3(OC)CCCC3)c12 [Example 71]
  inhibition at 1 µM: 72%

## COc1cc(Cn2cccn2)cc2onc(NS(=O)(=O)CC3CN(S(C)(=O)=O)C3)c12 [Example 85]
  inhibition at 1 µM: 36%
KAT6A Ki at 10 μM AcCoA
  Ki: 1.34 µM

## COc1cc(Cn2cccn2)cc2onc(NS(=O)(=O)CC34CCC(CC3)CC4)c12 [Example 24]
  inhibition at 1 µM: 93%
KAT6A Ki at 10 μM AcCoA
  Ki: 0.0195 µM

## COc1cc(Cn2cccn2)cc2onc(NS(=O)(=O)CC3CCOCC3)c12 [Example 7, N-{4-methoxy-6-[(1H-pyrazol-1-yl)methyl]-1,2-benzoxazol-3-yl}-1-(oxan-4-yl)methanesulfonamide]
  inhibition at 1 µM: 51%
KAT6A Ki at 10 μM AcCoA
  Ki: 0.177 µM

## COc1cc(Cn2cccn2)cc2onc(NS(=O)(=O)CC3CCCCO3)c12 (single isomer, unassigned; (-)) [Example 2, (−)-N-{4-methoxy-6-[(1H-pyrazol-1-yl)methyl]-1,2-benzoxazol-3-yl}-1-(oxan-2-yl)methanesulfonamide]
  IC50: 0.27 µM

## COc1cc(Cn2cccn2)cc2onc(NS(=O)(=O)C3CC(C)(C)C3)c12 [Example 84]
  inhibition at 1 µM: 62%

## CCOC1(CS(=O)(=O)Nc2noc3cc(Cn4cccn4)cc(OC)c23)CCC1 [Example 11]
  inhibition at 1 µM: 45%
KAT6A Ki at 10 μM AcCoA
  Ki: 0.371 µM

## COc1cc(Cn2cccn2)cc2onc(NS(=O)(=O)C3CCC3)c12 [Example 12]
  inhibition at 1 µM: 59%
[1]
  Ki: 0.199 µM

## COc1cc(Cn2cccn2)cc2onc(NS(=O)(=O)C3CCOC3=O)c12 (centres unmarked) [Example 99]
  inhibition at 1 µM: 83%

## COc1cc(Cn2cccn2)cc2onc(NS(=O)(=O)CC3(C)CC3(F)F)c12 (centres unmarked) [Example 42]
  inhibition at 1 µM: 50%

## COc1cc(Cn2cccn2)cc2onc(NS(=O)(=O)CC(OC)C3CCCC3)c12 (centres unmarked) [Example 70]
  inhibition at 1 µM: 80%

## COc1cc(Cn2cccn2)cc2onc(NS(=O)(=O)CC3CC4(CCC4)C3)c12 [Example 38]
  inhibition at 1 µM: 92%

## COc1cc(Cn2cccn2)cc2onc(NS(=O)(=O)CC3C[C@@H]4[C@H](C3)C4(F)F)c12 (some centres unmarked) [Example 64]
  inhibition at 1 µM: 92%
KAT6A Ki at 10 μM AcCoA
  Ki: 0.028 µM

## COc1cc(Cn2cccn2)cc2onc(NS(=O)(=O)CC3CCCCO3)c12 (single isomer, unassigned; (+)) [Example 1, (+)-N-{4-methoxy-6-[(1H-pyrazol-1-yl)methyl]-1,2-benzoxazol-3-yl}-1-(oxan-2-yl)methanesulfonamide]
  inhibition at 1 µM: 88%
  IC50: 0.117 µM

## COc1cc(Cn2cccn2)cc2onc(NS(=O)(=O)CCC3CCOC3)c12 (centres unmarked) [Example 112]
  inhibition at 1 µM: 68%

## COc1cc(Cn2cccn2)cc2onc(NS(=O)(=O)CC3(C(F)F)CC3)c12 [Example 50]
  inhibition at 1 µM: 87%

## COc1cc(Cn2cccn2)cc2onc(NS(=O)(=O)CC3CCC4(CCC4)O3)c12 (centres unmarked) [Example 121]
  inhibition at 1 µM: 75%

## COc1cc(Cn2cccn2)cc2onc(NS(=O)(=O)CCCC3CC3)c12 [Example 58]
  inhibition at 1 µM: 87%

## COc1cc(Cn2cccn2)cc2onc(NS(=O)(=O)CC3CCOC(C)C3)c12 (centres unmarked) [Example 103]
  inhibition at 1 µM: 75%

## COc1cc(Cn2cccn2)cc2onc(NS(=O)(=O)CC3CCCC3)c12 [Example 9]
  inhibition at 1 µM: 91%
KAT6A Ki at 10 μM AcCoA
  Ki: 0.0601 µM

## COc1cc(Cn2cccn2)cc2onc(NS(=O)(=O)CC3CCCC(F)(F)C3)c12 (centres unmarked) [Example 19]
  inhibition at 1 µM: 81%
KAT6A Ki at 10 μM AcCoA
  Ki: 0.0653 µM

## COc1cc(Cn2cccn2)cc2onc(NS(=O)(=O)CC3(C(F)(F)F)CC3)c12 [Example 34]
  inhibition at 1 µM: 46%

## COc1cc(Cn2cccn2)cc2onc(NS(=O)(=O)C3CCOCC3C)c12 (centres unmarked) [Example 96]
  inhibition at 1 µM: 58%

## COc1cc(Cn2cccn2)cc2onc(NS(=O)(=O)CCOCC3CCC3)c12 [Example 126]
  IC50: 0.133 µM

## COc1cc(Cn2cccn2)cc2onc(NS(=O)(=O)CC(C)OCC3CCCC3)c12 (centres unmarked) [Example 127]
  IC50: 0.036 µM

## COc1cc(Cn2cccn2)cc2onc(NS(=O)(=O)C3(C)CCC3)c12 [Example 81]
  inhibition at 1 µM: 41%

## COc1cc(Cn2cccn2)cc2onc(NS(=O)(=O)CC3(OC(C)C)CCCO3)c12 (centres unmarked) [Example 122]
  inhibition at 1 µM: 85%
  IC50: 0.0384 µM
KAT6A Ki at 10 μM AcCoA
  Ki: 0.0149 µM

## COc1cc(Cn2cccn2)cc2onc(NS(=O)(=O)C3CCC(=O)CC3)c12 [Example 80]
  inhibition at 1 µM: 60%

## COc1cc(Cn2cccn2)cc2onc(NS(=O)(=O)C[C@H]3C[C@H](C)C3)c12 [Example 134]
  IC50: 0.04 µM

## COc1cc(Cn2cccn2)cc2onc(NS(=O)(=O)C3CC(CC#N)C3)c12 (centres unmarked) [Example 14]
KAT6A Ki at 10 μM AcCoA
  Ki: 0.16 µM

## COc1cc(Cn2cccn2)cc2onc(NS(=O)(=O)CCC3CCC3)c12 [Example 29]
  inhibition at 1 µM: 103%
KAT6A Ki at 10 μM AcCoA
  Ki: 0.0131 µM

## COc1cc(Cn2cccn2)cc2onc(NS(=O)(=O)CC3CCCOC3)c12 (centres unmarked) [Example 4]
  IC50: 0.349 µM

## COc1cc(Cn2cccn2)cc2onc(NS(=O)(=O)C3CCCN(C(C)=O)C3)c12 (centres unmarked) [Example 97]
  inhibition at 1 µM: 83%

## COc1cc(Cn2cccn2)cc2onc(NS(=O)(=O)CC3(C)CCCCC3)c12 [Example 22]
  inhibition at 1 µM: 60%
KAT6A Ki at 10 μM AcCoA
  Ki: 0.0332 µM

## COc1cc(Cn2cccn2)cc2onc(NS(=O)(=O)C3CCC(C)CC3)c12 (centres unmarked) [Example 82]
  inhibition at 1 µM: 61%

## COc1cc(Cn2cccn2)cc2onc(NS(=O)(=O)CC3CC(C)(C)OC3(C)C)c12 (centres unmarked) [Example 86]
  inhibition at 1 µM: 77%
KAT6A Ki at 10 μM AcCoA
  Ki: 0.107 µM

## COc1cc(Cn2cccn2)cc2onc(NS(=O)(=O)[C@H]3C[C@@H]3c3ccc(F)cc3)c12 [Example 27]
KAT6A Ki at 10 μM AcCoA
  Ki: 0.0138 µM

## COc1cc(Cn2cccn2)cc2onc(NS(=O)(=O)C3CCCC3C)c12 (centres unmarked) [Example 72]
  inhibition at 1 µM: 70%

## COc1cc(Cn2cccn2)cc2onc(NS(=O)(=O)C3CC(C)CC(C)C3)c12 (centres unmarked) [Example 62]
  inhibition at 1 µM: 97%

## COc1cc(Cn2cccn2)cc2onc(NS(=O)(=O)CC3CCCO3)c12 (centres unmarked) [Example 6]
  IC50: 0.371 µM

## COc1cc(Cn2cccn2)cc2onc(NS(=O)(=O)CC3CCN(C(C)=O)CC3)c12 [Example 92]
  inhibition at 1 µM: 40%

## COc1cc(Cn2cccn2)cc2onc(NS(=O)(=O)CC3CCC(F)CC3)c12 (centres unmarked) [Example 8]
  inhibition at 1 µM: 77%

## COc1cc(Cn2cccn2)cc2onc(NS(=O)(=O)[C@@H]3CCCN(C(=O)OCc4ccccc4)C3)c12 [Example 91]
  inhibition at 1 µM: 53%

## COc1cc(Cn2cccn2)cc2onc(NS(=O)(=O)C3CC3)c12 [Example 13]
[1]
  Ki: 0.224 µM

## COc1cc(Cn2cccn2)cc2onc(NS(=O)(=O)CC(C)C3CC3)c12 (centres unmarked) [Example 48]
  inhibition at 1 µM: 55%

## COc1cc(Cn2cccn2)cc2onc(NS(=O)(=O)CC3CCC3)c12 [Example 17]
  inhibition at 1 µM: 83%
KAT6A Ki at 10 μM AcCoA
  Ki: 0.0824 µM

## COc1cc(Cn2cccn2)cc2onc(NS(=O)(=O)CC3CCCCC3(F)F)c12 (centres unmarked) [Example 41]
  inhibition at 1 µM: 91%

## COCC1(CS(=O)(=O)Nc2noc3cc(Cn4cccn4)cc(OC)c23)CCC1 [Example 55]
  inhibition at 1 µM: 64%

## COc1cc(Cn2cccn2)cc2onc(NS(=O)(=O)CC3CC4CCC3C4)c12 (centres unmarked) [Example 30]
  inhibition at 1 µM: 98%
KAT6A Ki at 10 μM AcCoA
  Ki: 0.00732 µM
